Where a name gives a salt, the structure may show the parent alone. Read-outs that look alike come from different tables or passages of the source.
Tests used:
LIMK1KD = target: T1, LIMK1KD (Homo sapiens, UniProt P53667); assay: Differential (dynamic) scanning fluorimetry (DSF) assay, LIMK1KD; assay type: binding; conditions: for ΔTm at 10 µM: read-out: TM Shift LIMK1 (K)
T1 construct: His6 (N, cleaved yes); made in house; host or cells: baculovirus; Sf9 for virus, TriEx insect cells for expression
T1 sequence (P53667 330-637): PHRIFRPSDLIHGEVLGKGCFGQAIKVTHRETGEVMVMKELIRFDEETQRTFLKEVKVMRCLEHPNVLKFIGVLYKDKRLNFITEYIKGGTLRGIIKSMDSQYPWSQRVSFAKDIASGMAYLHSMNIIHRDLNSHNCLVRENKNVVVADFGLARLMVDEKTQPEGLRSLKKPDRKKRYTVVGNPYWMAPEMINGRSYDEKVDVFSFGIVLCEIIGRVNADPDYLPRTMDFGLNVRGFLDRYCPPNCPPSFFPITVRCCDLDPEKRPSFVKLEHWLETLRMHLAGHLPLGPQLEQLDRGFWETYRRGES

LIMK2KD = target: T2, LIMK2KD (Homo sapiens, UniProt P53671); assay: Differential (dynamic) scanning fluorimetry (DSF) assay, LIMK2KD; assay type: binding
T2 construct: The cDNA coding for LIMK2 residues 330 to 632 was PCR amplified; His6 (N, cleaved yes); made in house; host or cells: baculovirus; Sf9 for virus, TriEx insect cells for expression
T2 sequence (P53671 330-632): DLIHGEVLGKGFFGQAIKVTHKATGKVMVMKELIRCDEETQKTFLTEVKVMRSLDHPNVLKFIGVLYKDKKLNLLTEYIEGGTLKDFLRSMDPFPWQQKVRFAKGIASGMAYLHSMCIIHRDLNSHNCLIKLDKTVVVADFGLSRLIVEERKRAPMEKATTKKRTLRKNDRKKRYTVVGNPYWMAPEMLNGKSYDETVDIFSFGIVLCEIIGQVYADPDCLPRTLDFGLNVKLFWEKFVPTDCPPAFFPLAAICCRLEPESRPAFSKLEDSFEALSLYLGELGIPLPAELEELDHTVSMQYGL

[1] = 2 µM LIMK1KD, compound 10 µM, single shot
[2] = LIMK2KD, compound 10 µM, single shot, read-out: TM Shift LIMK2 (K)
[3] = LIMK2KD, compound 10 µM, single shot, 10 µM
[4] = LIMK2KD, compound 10 µM, single shot

ΔTm at 10 µM (LIMK1KD; [1]) | ΔTm at 10 µM (LIMK2KD; [2]) | TM Shift LIMK1 (K) (LIMK1KD; [1]) | TM Shift LIMK2 (K) (LIMK2KD; [4]) | Compound | other results
3.7 °C | 0.3 °C |  |  | CCS(=O)(=O)c1cccc(-c2cc(C(=O)NC3CCN(C)CC3)c(C)c3[nH]c4ncc(C)cc4c23)c1 [TAK-901] | 
1.2 °C | 0 °C |  |  | C=CCn1c(=O)c2cnc(Nc3ccc(N4CCN(C)CC4)cc3)nc2n1-c1cccc(C(C)(C)O)n1 [MK-1775] | 
0.1 °C | 2 °C |  |  | Cc1c(Cn2c(C)nc3c(C(=O)O)cc(N4CCOCC4)cc32)cccc1C(F)(F)F [GSK2636771] | 
0.9 °C | 0.8 °C |  |  | COc1ccc(-c2ccc3c(N4CCOC[C@@H]4C)nc(N4CCOC[C@@H]4C)nc3n2)cc1CO [AZD8055] | 
 |  | 3.3 K | 2.4 K | Cc1ccc([N+](=O)[O-])cc1S(=O)(=O)N(C)/N=C/c1cnc2ccc(Br)cn12 [PIK-75] | 
-0.2 °C | 0 °C |  |  | CNC(=O)c1ccc(-c2cnc3ncc(Cc4ccc5ncccc5c4)n3n2)cc1F [INCB28060] | 
3.8 °C | 3.1 °C |  |  | C=CC(=O)Nc1cccc(Nc2nc(Nc3ccc(OCCOC)cc3)ncc2F)c1 [AVL-292] | 
0.6 °C | 1.3 °C |  |  | O=c1ncn2nc(Sc3ccc(F)cc3F)ccc2c1-c1c(Cl)cccc1Cl [VX-745] | 
 |  | 0.0 K | 1.2 K | Oc1ccc2ccccc2c1SSc1c(O)ccc2ccccc12 [IPA-3] | 
-0.2 °C | -0.1 °C |  |  | COc1cc2ncnc(Oc3cccc(NC(=O)Nc4cc(C(C)(C)C(F)(F)F)on4)c3)c2cc1OC [CEP-32496] | 
0.5 °C | -2.1 °C |  |  | Cc1csc(-c2nnc(Nc3ccc(Oc4ncccc4-c4ccnc(N)n4)cc3)c3ccccc23)c1 [AMG-900] | 
 |  | -1.0 K | 1.2 K | Cc1cc(C)nc(NS(=O)(=O)c2ccc(NC(=S)NC(=O)COc3ccc(Br)cc3Cl)cc2)n1 [ZCL278] | 
1.3 °C | -0.1 °C |  |  | CCn1cc(-c2ccnc3[nH]c(-c4cccc(CN(C)C)c4)cc23)c(-c2ccc(NC(=O)N(C)C)cc2)n1 [GSK1070916] | 
 |  | 3.6 K | 2.8 K | O=C(Nc1cccc(Nc2ncc(Br)c(NCCc3cnc[nH]3)n2)c1)N1CCCC1 [BX-912] | 

The next lines start with the compound.

Compound | ΔTm at 10 µM (LIMK1KD; [1]) | ΔTm at 10 µM (LIMK2KD; [2]) | TM Shift LIMK1 (K) (LIMK1KD; [1]) | TM Shift LIMK2 (K) (LIMK2KD; [4]) | other results
Cc1cnc(Nc2ccc(OCCN3CCCC3)cc2)nc1Nc1cccc(S(=O)(=O)NC(C)(C)C)c1 [Fedratinib] | 3.2 °C | 1.4 °C |  |  | 
Cn1c(=O)n(-c2ccc(C(C)(C)C#N)cc2)c2c3cc(-c4cnc5ccccc5c4)ccc3ncc21 [Dactolisib] |  |  | 0.3 K |  | TM Shift LIMK1 (K) (LIMK1KD; 2 µM LIMK1KD, compound 10 µM, single shot, listed as BEZ235 (NVP-BEZ235, Dactolisib)): -0.1 K; TM Shift LIMK2 (K) (LIMK2KD; [3]): -0.3 K; TM Shift LIMK2 (K) (LIMK2KD; LIMK2KD, compound 10 µM, single shot, listed as BEZ235 (NVP-BEZ235, Dactolisib), 10 µM): 0.1 K
Cc1ccc(NC(=O)c2ccc(CN3CCN(C)CC3)cc2)cc1Nc1nccc(-c2cccnc2)n1 [Imatinib (STI571), Imatinib] |  | 1 °C | 0.8 K |  | 
CC(C)c1cnn2c(NCc3ccccc3)cc(NCCCCCCN)nc12.Cl [BS-181 HCl] |  |  | 0.7 K | 1.7 K | 
Cl.Cl.O=S(=O)(NCCNC/C=C/c1ccc(Br)cc1)c1cccc2cnccc12 [H 89 2HCl] |  |  | 1.8 K | 3.9 K | 
O=C1Nc2ccccc2/C1=C1/Nc2ccccc2C1=O [Indirubin] | 1.4 °C | 2.6 °C |  |  | 
CN1CCC(CNc2ccc3ncc(-c4cccc(OC(F)(F)F)c4)n3n2)CC1 [SGI-1776 free base] |  |  | 1.7 K | 1.4 K | 
Cc1ccc(NC(=O)c2cccc(C(C)(C)C#N)c2)cc1Nc1ccc2ncn(C)c(=O)c2c1 [AZ 628] |  |  | 0.3 K | 1.2 K | 
CCn1c2ccccc2c2cc(Nc3ccnc(NCCCN4CCOCC4)n3)ccc21 [EHop-016] |  |  | -0.1 K | -0.7 K | 
CN(C)Cc1cccc(N/C(=C2\C(=O)Nc3cc(C(N)=O)ccc32)c2ccccc2)c1 [BIX 02188] | 1.7 °C | -0.1 °C |  |  | 
COc1ccc2c(c1)c(C1=C(c3c[nH]c4ccccc34)C(=O)NC1=O)cn2CCCN(C)C [Go 6983] |  |  | 0.5 K | 1.8 K | 
Cc1cnc(NC(=O)Nc2cc(Br)c(C)cc2OC[C@@H]2CNCCO2)cn1 [Rabusertib] |  |  | -1.1 K |  | TM Shift LIMK2 (K) (LIMK2KD; [3]): 0.2 K
C=CC(=O)Nc1cc2c(Nc3ccc(F)c(Cl)c3)ncnc2cc1OCCCN1CCOCC1 [Canertinib (CI-1033), Canertinib] | 0.9 °C | 0.5 °C |  |  | 
O=C(NCc1ccccc1)c1csc(Nc2ccncn2)n1 [Thiazovivin] |  |  | 1.1 K | 1.0 K | 
O=c1sn(-c2cccc3ccccc23)c(=O)n1Cc1ccccc1 [Tideglusib] | -0.5 °C | 3.9 °C |  |  | 
AZD4547 |  |  | -0.1 K | -0.1 K | 
Fc1cc(-c2cccc3ncc(-c4cnn(C5CCNCC5)c4)nc23)cc(F)c1CN1CCOCC1 [NVP-BSK805 2HCl] |  |  | 1.5 K | 0.2 K | 

Compound | ΔTm at 10 µM (LIMK1KD; [1]) | ΔTm at 10 µM (LIMK2KD; [2]) | TM Shift LIMK1 (K) (LIMK1KD; [1]) | TM Shift LIMK2 (K) (LIMK2KD; [4]) | other results
O=C(NC(NC(=S)Nc1ccc(F)c([N+](=O)[O-])c1)C(Cl)(Cl)Cl)C(c1ccccc1)c1ccccc1 (stereo not drawn) [CGK 733] |  |  | 0.7 K | 4.2 K | 
Cc1c(CN2CCN(C(=O)[C@H](C)O)CC2)sc2c(N3CCOCC3)nc(-c3cnc(N)nc3)nc12 [Apitolisib] | 1.6 °C | 0.6 °C |  |  | 
C[C@]1(O)C[C@@H](c2nc(-c3ccc4ccc(-c5ccccc5)nc4c3)c3c(N)nccn32)C1 [Linsitinib] |  | 0.9 °C | 0.8 K |  | TM Shift LIMK1 (K) (LIMK1KD; 2 µM LIMK1KD, compound 10 µM, single shot, listed as OSI-906 (Linsitinib)): 0.2 K; TM Shift LIMK2 (K) (LIMK2KD; LIMK2KD, compound 10 µM, single shot, listed as OSI-906 (Linsitinib), 10 µM): 0.7 K
Cc1c[nH]c(-c2cnc(NCCNc3ccc(C#N)cn3)nc2-c2ccc(Cl)cc2Cl)n1 [CHIR-99021 (CT99021) HCl] | 3.1 °C | -0.3 °C |  |  | 
NC(=O)c1ncn([C@@H]2O[C@H](CO)[C@@H](O)[C@H]2O)c1N [Acadesine] | 0.7 °C | 2.1 °C |  |  | 
CNC(=O)c1cc(Oc2ccc(NC(=O)Nc3ccc(Cl)c(C(F)(F)F)c3)cc2)ccn1 [Sorafenib Tosylate] |  |  | 1.7 K |  | ΔTm at 10 µM (LIMK2KD; read-out: TM Shift LIMK2 (K), LIMK2KD, compound 10 µM, single shot): 1.5 °C
Cn1cnc(N)c2ncnc1-2 [3-Methyladenine] | 0.4 °C | 0.5 °C |  |  | 
CCc1ccc(/C=C2/SC(=S)NC2=O)cc1 [10058-F4] |  |  | 0.3 K | 1.7 K | 
COc1cc2ncnc(Nc3cccc(Cl)c3)c2cc1OC [AG-1478 (Tyrphostin AG-1478), Tyrphostin AG-1478] | 1.4 °C | -0.2 °C |  |  | 
C#Cc1cccc(Nc2ncnc3cc4c(cc23)OCCOCCOCCO4)c1 [Icotinib] | -0.2 °C | -0.6 °C |  |  | 
CCC[C@H](NC(=O)/C(C#N)=C/c1cccc(Br)n1)c1ccccc1 [Degrasyn (WP1130), Degrasyn] |  |  | -1.0 K | 0.7 K | 
CHIR-98014 |  |  |  |  | TM Shift LIMK1 (K) (LIMK1KD): 5.0 K; TM Shift LIMK2 (K) (LIMK2KD; 10 µM): 0.0 K
CCS(=O)(=O)Nc1ccc2c(c1)/C(=C(/Nc1ccc(CN3CCCCC3)cc1)c1ccccc1)C(=O)N2 [Hesperadin] | 2.7 °C | 1.2 °C |  |  | 
O=c1cc(-c2cccc3c2Sc2ccccc2S3)oc(N2CCOCC2)c1 [KU-55933 (ATM Kinase Inhibitor)] | -0.2 °C | -0.1 °C |  |  | 
Cn1cc(-c2ccc3ncc(Cc4ccc5ncccc5c4)n3n2)cn1 [NVP-BVU972] |  |  | -0.5 K | 2.9 K | 
CCN(CC)CCNC(=O)c1c(C)[nH]c(/C=C2\C(=O)Nc3ccc(F)cc32)c1C [Sunitinib Malate] |  |  | 1.6 K |  | TM Shift LIMK2 (K) (LIMK2KD; [3]): 0.5 K
Cc1[nH]c(/C=C2\C(=O)Nc3ccccc32)c(C)c1CCC(=O)O [Orantinib] | 1.9 °C |  |  |  | TM Shift LIMK1 (K) (LIMK1KD; 2 µM LIMK1KD, compound 10 µM, single shot, listed as TSU-68 (SU6668, Orantinib)): 1.7 K; TM Shift LIMK2 (K) (LIMK2KD; [3]): 1.0 K; TM Shift LIMK2 (K) (LIMK2KD; LIMK2KD, compound 10 µM, single shot, listed as TSU-68 (SU6668, Orantinib), 10 µM): 2.8 K

Source: PMC6835155, “Lessons from LIMK1 enzymology and their impact on inhibitor design” (Biochemical Journal, 2019)
